Data as given in PMC4306533, “Distinct Features of Cap Binding by eIF4E1b Proteins” (Journal of Molecular Biology, 2015).

What was measured:
[1] = molecular target: T1, XeIF4E1a (Xenopus laevis, UniProt P48597); experiment: time-synchronized fluorescence titration of cap analogue binding; conditions: for Kas + glycerol XeIF4E1a / Kas − glycerol XeIF4E1a: equilibrium association constant; for Kas − glycerol XeIF4E1a: buffer without glycerol
T1 construct: made in house; host or cells: E. coli Rosetta2(DE3)
T1 sequence (P48597 whole entry): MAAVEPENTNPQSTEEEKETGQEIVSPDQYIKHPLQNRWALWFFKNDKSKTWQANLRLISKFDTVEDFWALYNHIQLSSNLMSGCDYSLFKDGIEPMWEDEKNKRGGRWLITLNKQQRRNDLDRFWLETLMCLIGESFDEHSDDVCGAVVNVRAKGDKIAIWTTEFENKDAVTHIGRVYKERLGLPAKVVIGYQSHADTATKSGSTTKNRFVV
Source text: (§1) The time-synchronized fluorescence titration method, widely used to determine the affinity constants of cap–eIF4E complexes [[20,22–26]], measures the quenching of the intrinsic fluorescence of tryptophan residues due to cap binding (Fig. S2). Knowledge of the equilibrium association constant Kas enables the calculation of the free-energy changes involved in the interaction between eIF4E and ligand, according to the standard equation ΔG° = − RTlnKas.
(§2) For human eIF4E1a and eIF4E1b and also for Xenopus eIF4E1a and its mutated forms, measurements were carried out using 0.1 μM protein in 50 mM Hepes/KOH (pH 7.2), 134.5 mM KCl, 0.5 mM EDTA and 1 mM DTT. For Xenopus eIF4E1b(ΔN27), the concentration was 0.2 μM and glycerol was added to the buffer to 10% (v/v) final concentration. […] Fluorescence of measured samples was excited at 280 nm (2.5 nm bandwidth) and detected at 337 nm or 330 nm (4 nm bandwidth), thus reducing the signal originated from the free cap analogues. Measurements were carried out on a LS-55 spectrofluorometer (Perkin Elmer Co.) using freshly prepared proteins, and the fluorescence intensities were corrected for sample dilution and the inner filter effect.
(§3) Equilibrium association constants (Kas) were determined by fitting the theoretical dependence of fluorescence intensity on the total concentration of the cap analogue to the experimental data points, according to the equation described previously (see Ref. [22] and Fig. S2c).
(§4) The final Kas was calculated as a weighted average of 2–6 independent titrations with the weights taken as the reciprocal of the numerical standard deviation squared. Numerical, nonlinear least-squares regression analysis was performed using Origin 6.0 (Microcal Software Inc.). Obtained association constants were used to determine the Gibbs free energy according to the standard equation ΔG° = − RTlnKas.

[2] = molecular target: T2, heIF4E1b (Homo sapiens, UniProt A6NMX2); experiment: as above; conditions: equilibrium association constant; buffer without glycerol
T2 construct: made in house; host or cells: E. coli Rosetta2(DE3)
T2 sequence (A6NMX2 1-242): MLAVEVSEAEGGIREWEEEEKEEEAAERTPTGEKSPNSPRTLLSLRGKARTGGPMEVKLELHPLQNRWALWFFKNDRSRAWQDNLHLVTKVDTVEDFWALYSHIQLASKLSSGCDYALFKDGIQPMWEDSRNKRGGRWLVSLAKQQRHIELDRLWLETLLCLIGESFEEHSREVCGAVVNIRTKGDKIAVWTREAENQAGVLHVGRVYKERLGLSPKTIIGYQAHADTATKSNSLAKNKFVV
Source text: as §1, §2, §3, §4

[3] = system: XeIF4E1bΔN27; experiment: as above; design: species or system Xenopus laevis; conditions: 10% glycerol; for Kas + glycerol XeIF4E1bΔN27: equilibrium association constant
Source text: as §1, §2, §3, §4

[4] = molecular target: T3, X4E1a1 (E101S) (Xenopus laevis, UniProt P48597, E101S); experiment: fluorescence titration, XeIF4E1a mutant; type: binding; conditions: mutant (E101S) of XeIF4E1a
T3 construct: made in house; host or cells: E. coli Rosetta2(DE3)
T3 sequence (P48597 whole entry E101S): as the sequence (P48597 whole entry) above, with E101S counted along it
Source text: (§5) We tested the effect on cap-binding activity of these positions in the fluorescence assay with six mutated recombinant versions of Xenopus eIF4E1a (Fig. S4). The amino acids were introduced in XeIF4E1a sequentially in the order: E101S/K102R/S195A/M82S/T206L/T207S (numbering of the XeIF4E1a sequence is shifted backward by 4 amino acids relative to XeIF4E1b). […] The biggest contribution to the weaker cap binding of XeIF4E1a, in each case about 20%, resulted from changing Glu101 to Ser and Thr206 to Leu coupled with Thr207 to Ser, with the remaining mutations having only minor effects. […] Glu101 is a solvent-accessible amino acid and is proximal to Trp98 in the S3-S4 loop. […] Attenuation of the cap-binding affinity of XeIF4E1a resulting from mutating Thr206 and Thr207 is consistent with our results mentioned above showing significant influence of C-terminal loop residues on binding phosphate and the second nucleotide.
(§6) For human eIF4E1a and eIF4E1b and also for Xenopus eIF4E1a and its mutated forms, measurements were carried out using 0.1 μM protein in 50 mM Hepes/KOH (pH 7.2), 134.5 mM KCl, 0.5 mM EDTA and 1 mM DTT. For Xenopus eIF4E1b(ΔN27), the concentration was 0.2 μM and glycerol was added to the buffer to 10% (v/v) final concentration. […] The gradually increasing concentration of cap analogue quenches protein fluorescence without shifting the spectrum maximum, while at high concentrations, the fluorescence signal of free cap analogue dominates over the fluorescence from other solution components including free eIF4E and eIF4E in complex with cap (Fig. S2a). Fluorescence of measured samples was excited at 280 nm (2.5 nm bandwidth) and detected at 337 nm or 330 nm (4 nm bandwidth), thus reducing the signal originated from the free cap analogues. Measurements were carried out on a LS-55 spectrofluorometer (Perkin Elmer Co.) using freshly prepared proteins, and the fluorescence intensities were corrected for sample dilution and the inner filter effect.
(§7) Equilibrium association constants (Kas) were determined by fitting the theoretical dependence of fluorescence intensity on the total concentration of the cap analogue to the experimental data points, according to the equation described previously (see Ref. [22] and Fig. S2c). […] Along with Kas and the concentration of the active protein [P0^act], other parameters such as fL and ∆f = fPact − fPL are also gained from the fit, where fL represents the fluorescence efficiency of free cap analogue and ∆f represents the difference between the fluorescence efficiencies of the apo-protein and the complex (Fig. S2c).
as §4

[5] = molecular target: T4, X4E1a1’ (K102R) (Xenopus laevis, UniProt P48597, K102R); experiment: fluorescence titration, XeIF4E1a mutant; type: binding; conditions: mutant (K102R) of XeIF4E1a
T4 construct: made in house; host or cells: E. coli Rosetta2(DE3)
T4 sequence (P48597 whole entry K102R): as the sequence (P48597 whole entry) above, with K102R counted along it
Source text: as §5, §6, §7, §4

[6] = molecular target: T5, X4E1a2 (E101S/K102R) (Xenopus laevis, UniProt P48597, E101S/K102R); experiment: fluorescence titration, XeIF4E1a mutant; type: binding; conditions: mutant (E101S/K102R) of XeIF4E1a
T5 construct: made in house; host or cells: E. coli Rosetta2(DE3)
T5 sequence (P48597 whole entry E101S/K102R): as the sequence (P48597 whole entry) above, with E101S, K102R counted along it
Source text: as §5, §6, §7, §4

[7] = molecular target: T6, X4E1a3 (E101S/K102R/S195A) (Xenopus laevis, UniProt P48597, E101S/K102R/S195A); experiment: fluorescence titration, XeIF4E1a mutant; type: binding; conditions: mutant (E101S/K102R/S195A) of XeIF4E1a
T6 construct: made in house; host or cells: E. coli Rosetta2(DE3)
T6 sequence (P48597 whole entry E101S/K102R/S195A): as the sequence (P48597 whole entry) above, with E101S, K102R, S195A counted along it
Source text: as §5, §6, §7, §4

[8] = molecular target: T7, X4E1a4 (E101S/K102R/S195A/M82S) (Xenopus laevis, UniProt P48597, E101S/K102R/M82S/S195A); experiment: fluorescence titration, XeIF4E1a mutant; type: binding; conditions: mutant (E101S/K102R/S195A/M82S) of XeIF4E1a
T7 construct: made in house; host or cells: E. coli Rosetta2(DE3)
T7 sequence (P48597 whole entry M82S/E101S/K102R/S195A): as the sequence (P48597 whole entry) above, with M82S, E101S, K102R, S195A counted along it
Source text: as §5, §6, §7, §4

[9] = molecular target: T8, X4E1a6 (E101S/K102R/S195A/M82S/T206L/T207S) (Xenopus laevis, UniProt P48597, E101S/K102R/M82S/S195A/T206L/T207S); experiment: fluorescence titration, XeIF4E1a mutant; type: binding; conditions: for Kas X4E1a6: mutant (E101S/K102R/S195A/M82S/T206L/T207S) of XeIF4E1a
T8 construct: made in house; host or cells: E. coli Rosetta2(DE3)
T8 sequence (P48597 whole entry M82S/E101S/K102R/S195A/T206L/T207S): as the sequence (P48597 whole entry) above, with M82S, E101S, K102R, S195A, T206L, T207S counted along it
Source text: as §5, §6, §7, §4

[10] = system: XeIF4E1a; experiment: time-synchronized fluorescence titration of cap analogue binding; design: species or system Xenopus laevis; conditions: without glycerol
Source text: as §1, §2, §3, §4

[11] = molecular target: T9, heIF4E1a (Homo sapiens, UniProt P06730); experiment: as above; conditions: for Kas − glycerol heIF4E1a: equilibrium association constant, buffer without glycerol
T9 construct: made in house; host or cells: E. coli Rosetta2(DE3)
T9 sequence (P06730 whole entry): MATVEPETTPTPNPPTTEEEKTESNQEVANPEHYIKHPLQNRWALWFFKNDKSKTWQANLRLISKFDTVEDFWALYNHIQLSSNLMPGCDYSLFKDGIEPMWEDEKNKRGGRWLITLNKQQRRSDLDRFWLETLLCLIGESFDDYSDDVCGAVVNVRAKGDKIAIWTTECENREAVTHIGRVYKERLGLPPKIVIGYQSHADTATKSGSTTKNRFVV
Source text: as §1, §2, §3, §4

[12] = system: heIF4E1b; experiment: as above; design: species or system human; conditions: without glycerol
Source text: as §1, §2, §3, §4

**Q.** Which results are given for `Cn1c[n+]([C@@H]2O[C@H](COP(=O)([O-])OP(=O)(O)OP(=O)(O)O)[C@@H](O)[C@H]2O)c2nc(N)[nH]c(=O)c21` [m^7GTP]?
**A.** Kas + glycerol XeIF4E1a ([1]; 10% glycerol): 23.34 ± 0.88 μM^− 1; Kas − glycerol XeIF4E1a [1]: 42.8 ± 2.0 μM^− 1; Kas − glycerol heIF4E1b [2]: 22.0 ± 1.4 μM^− 1; Kas + glycerol XeIF4E1bΔN27 [3]: 7.80 ± 0.41 μM^− 1; Kas X4E1a1 [4]: 33.58 ± 0.66 µM⁻¹; Kas X4E1a1’ [5]: 34.3 ± 1.7 µM⁻¹; Kas X4E1a2 [6]: 32.76 ± 0.51 µM⁻¹; Kas X4E1a3 [7]: 28.1 ± 1.5 µM⁻¹; Kas X4E1a4 [8]: 26.7 ± 2.2 µM⁻¹; decrease of association constant compared to wild-type XeIF4E1a ([9]; all six residues replaced): 50%; Kas X4E1a6 [9]: 19.8 ± 0.4 µM⁻¹

**Q.** `Cn1c[n+]([C@@H]2O[C@H](COP(=O)(O)OP(=O)(O)OP(=O)(O)OP(=O)(O)OP(=O)(O)O)[C@@H](O)[C@H]2O)c2nc(N)[nH]c(=O)c21` [m^7Gp5] was tested. Which “Kas + glycerol XeIF4E1a” value ([1]; 10% glycerol) did it give?
**A.** 230 ± 31 μM^− 1

**Q.** What about the “Kas − glycerol XeIF4E1a” value [1] of the same compound?
**A.** 378 ± 44 μM^− 1

**Q.** And the “Ratio Kas (h4E1a) to Kas (X4E1a)” value [10]?
**A.** 1.44

**Q.** And the “Kas − glycerol heIF4E1a” value [11]?
**A.** 547 ± 31 μM^− 1

**Q.** What about the “Kas − glycerol heIF4E1b” value [2] of the same compound?
**A.** 146.6 ± 9.9 μM^− 1

**Q.** What about the “Ratio Kas (h4E1a) to Kas (h4E1b)” value [12] of the same compound?
**A.** 3.73

**Q.** And the “Ratio Kas (X4E1a) to Kas (X4E1bΔN27)” value [3]?
**A.** 3.50

**Q.** What about the “Kas + glycerol XeIF4E1bΔN27” value [3] of the same compound?
**A.** 65.6 ± 4.2 μM^− 1

**Q.** What about the “Kas X4E1a1” value [4] of the same compound?
**A.** 279 ± 34 µM⁻¹

**Q.** What about the “Kas X4E1a1’” value [5] of the same compound?
**A.** 382 ± 16 µM⁻¹

**Q.** What about the “Kas X4E1a2” value [6] of the same compound?
**A.** 280 ± 11 µM⁻¹

**Q.** What about the “Kas X4E1a6” value [9] of the same compound?
**A.** 190 ± 6 µM⁻¹

**Q.** Which “ΔΔG^o + glycerol XeIF4E1a” value ([1]; change relative to m^7Gp3G, 10% glycerol) does the source give for `CO[C@@H]1[C@H](O)[C@@H](COP(=O)(O)OP(=O)(O)OP(=O)(O)OC[C@H]2O[C@@H](n3c[n+](C)c4c(=O)[nH]c(N)nc43)[C@H](O)[C@@H]2O)O[C@H]1n1cnc2c(=O)[nH]c(N)nc21` [m^7Gpppm^2′-OG] here?
**A.** 0.026 ± 0.018 kcal/mol

**Q.** What about the “Kas + glycerol XeIF4E1a” value ([1]; 10% glycerol) of the same compound?
**A.** 2.189 ± 0.026 μM^− 1

**Q.** What about the “ΔΔG^o − glycerol heIF4E1a” value ([11]; change relative to m^7Gp3G, without glycerol) of the same compound?
**A.** 0.128 ± 0.041 kcal/mol

**Q.** What about the “Kas − glycerol heIF4E1a” value [11] of the same compound?
**A.** 4.77 ± 0.13 μM^− 1

**Q.** And the “Kas − glycerol heIF4E1b” value [2]?
**A.** 3.568 ± 0.071 μM^− 1

**Q.** And the “Ratio Kas (h4E1a) to Kas (h4E1b)” value [12]?
**A.** 1.34
